# In patent US6369089B1, “Interheteroaryl 7-oxabicyclic [2.2.1]heptane oxazoles as prostaglandin F2α antagonists” (Allergan Sales, Inc., priority 2000, dated 2002):
# Biological target: T1, human FP receptor (Homo sapiens, UniProt P43088)
# T1 construct: expressed in transfected cells
# Experiment: Ca2+ signaling, antagonism of 17-phenyl PGF2α response in HEK cells stably transfected with the human FP receptor
# Format: cell-based
# Experimental: HEK cells stably transfected with the human FP receptor were removed from the culture flasks by approximately 1 min treatment with trypsin 0.05%/0.53 mM EDTA in HBSS (Gibco, Grand Island, N.Y.) at 37° C. Proteolytic activity was arrested by adding 5 ml of 10% fetal bovine serum in DMEM. The cells were consecutively washed in Hank's BSS and medium containing 140 mM NaCl, […], 1 mM MgCl2, 1.5 mM CaCl2, 10 mM HEPES: TRIS, 5 mM glucose, 5 mM Na pyruvate, 0.1% bovine serum albumin at pH 7.4: centrifugation for the washes was performed for 15 minutes at 200 g at room temperature. Cells were counted, resuspended in the above medium and incubated with 2×10^−6 M Fura 2/acetoxymethyl ester in a shaking water bath for 30 minutes at 37° C. The cells were subsequently washed in medium as above and resuspended at a concentration of 2×10^6 cells ml^−1. Aliquots of 0.5 ml cell suspension were then added to autocap microtubes to provide 10^6 cells per experimental determination of intracellular free Ca^2+ concentration ([Ca^2+]i).
# Fluorescence was measured in a Perkin-Elmer LS-5 fluorescence spectrophotometer at excitation and emission wavelengths of 340 and 492 nm, respectively, with both slits at 10 nm. […]
# T1 sequence (P43088 whole entry): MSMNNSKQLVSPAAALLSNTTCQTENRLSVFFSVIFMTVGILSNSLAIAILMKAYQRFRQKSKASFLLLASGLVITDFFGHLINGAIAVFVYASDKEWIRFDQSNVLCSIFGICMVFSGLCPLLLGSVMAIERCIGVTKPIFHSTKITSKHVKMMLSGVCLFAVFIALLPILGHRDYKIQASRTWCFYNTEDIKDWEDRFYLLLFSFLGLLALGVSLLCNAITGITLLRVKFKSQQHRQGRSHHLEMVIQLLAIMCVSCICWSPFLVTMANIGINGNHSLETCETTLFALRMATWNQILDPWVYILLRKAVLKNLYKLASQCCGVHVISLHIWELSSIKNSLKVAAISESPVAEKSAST
smiles,measurement,value
COC(=O)CCc1ccccc1CC1C2CCC(O2)C1c1nc(C(=O)NCCCCC2CCCCC2)co1 (stereo not shown),PGF2α antagonist activity (comparison in words),much less active than the corresponding acid
